Measured values as given in paper PMC7311426, “An amphipathic peptide with antibiotic activity against multidrug-resistant Gram-negative bacteria” (Nature Communications, 2020).
Like-named read-outs stand apart in the source and are kept apart here. Residues, ends and D or L forms follow the SMILES beside them.

Experiments:
E. coli ATCC 25922 = assay: NPN uptake assay, outer membrane permeabilization; format: cell-based, Escherichia coli; conditions: Prism nonlinear fit, One site - specific binding with Hill slope, Bmax = 100
[1] = Intravenous pharmacokinetics; conditions: for Nonlin fit of XY (Prism), mouse i.v. bolus / level at 1.23 h / level at 2 h / level at 3 h / level at 4 h / level at 8 h / level at 0.08 h / level at 0.5 h / level at 1 h / level at 24 h: Cross species PK; for Nonlin fit of XY (Prism), mouse i.v. bolus: fitted curve; for level at 1.23 h / level at 2 h / level at 3 h / level at 4 h / level at 8 h / level at 0.08 h / level at 0.5 h / level at 1 h / level at 24 h: concentration (Fig 6 source data)
Description: The studies were performed at Fidelta Ltd, Croatia (mice), under review by the institutional ethics committee (CARE-Zg), and Covance Laboratories UK and Muenster Germany (cynomolgus monkey and minipig) in accordance with the requirements of the Animals (Scientific Procedures) Act 1989 and a maintained local ethical review. All studies were contracted by Adenium Biotech ApS. Mice were housed in polysulfone cages with an acclimatization period of 7 days prior to experiments with air temperature maintained at 22 °C with 55% humidity and light–dark cycles of 12 h light. Cynomolgus monkeys of age range 4–7 years were selected, tested for health, acclimatized for 2 weeks, and housed in single-animal climate controlled stainless-steel cages with a minimum of 8 air changes per hour with air temperature at 19–25 °C and relative humidity 40–70%, and light–dark cycles of 12 h light. Minipigs of age range 4–6 months were selected, tested for health, acclimatized for 2 weeks, and housed in single-animal pens with 15–20 air changes per hour with air temperature at 22–26 °C with light–dark cycles of 12 h light.
Mouse i.v. injection: A formulation of AA139 in Ringer’s acetate pH 6.0 (1 mg mL^−1) was administered to male CD1 mice (Charles River, Italy) at 10 mg kg^−1 as a 400 μL slow injection into the lateral tail vein. Blood samples were collected from the jugular vein at eight timepoints (n = 3 mice): 0.08, 0.25, 0.5, 1, 2, 4, 8, and 24 h. AA139 was quantified in plasma using solid phase extraction (SPE) followed by liquid chromatography with tandem mass spectrometric detection (LC–MS/MS). Pharmacokinetic analysis was performed using Phoenix WinNonlin 6.2. (Pharsight Corporation) software using individual animal data, non-compartmental sparse analysis, and the actual dose as determined from formulation analysis by UPLC.
Mouse, monkey, and minipig i.v. 2-h infusion: AA139 formulated in Ringer’s acetate was administered intravenously to CD1 mice, cynomolgus monkeys (Macaca fascicularis) and Göttingen A/S minipigs (Ellegaard Göttingen, Denmark) by continuous infusion over 2 h (minipig under anesthesia). Individual dose volumes were based on individual body weight. Blood samples were collected at 0.5, 1, 2, 3, 4, 8, 10, and 12 h after the start of the infusion (n = 6 mice, male and female combined; n = 2 monkeys, one male and one female; n = 2 minipigs, one male and one female). Bioanalytical analysis was performed by SPE followed by LC–MS/MS. The method was validated for an AA139 concentration range of 43.4–21,700 ng mL^−1. Pharmacokinetic parameters were calculated by standard non-compartmental analysis (NCA) using Phoenix WinNonlin version 6.2. The studies were conducted in compliance with Good Laboratory Practice (GLP) regulations.

C. albicans = assay: microbe, parasite or virus in culture
C. neoformans = assay: microbe, parasite or virus in culture
[2] = both, CD1, mouse, in vivo, iv, 10 mg kg-1
[3] = both, CD1, mouse, in vivo, iv, mouse 2h i.v. infusion, replicate 1
[4] = both, CD1, mouse, in vivo, iv, mouse 2h i.v. infusion, replicate 2
[5] = both, CD1, mouse, in vivo, iv, mouse 2h i.v. infusion, replicate 3
[6] = male, CD1, mouse, in vivo, iv, 10 mg kg-1
[7] = male, CD1, mouse, in vivo, iv, 10 mg/kg, mouse i.v. bolus, replicate 1
[8] = male, CD1, mouse, in vivo, iv, 10 mg/kg, mouse i.v. bolus, replicate 2
[9] = male, CD1, mouse, in vivo, iv, 10 mg/kg, mouse i.v. bolus, replicate 3

## C[C@@H](O)[C@H]1C(=O)N2C(C(=O)O)=C(S[C@@H]3CN[C@H](C(=O)N(C)C)C3)[C@H](C)[C@H]12 [Meropenem, meropenem, reference compound]
E. coli ATCC 25922
  h (Hill slope, best-fit value): 0.3497

## CC(C)[C@@H]1NC(=O)[C@H](Cc2ccc(O)cc2)NC(=O)[C@H](Cc2c[nH]c3ccccc23)NC(=O)[C@@H](NC(=O)[C@H](Cc2ccccc2)NC(=O)CN)CSSC[C@@H](C(=O)N[C@@H](CC(N)=O)C(=O)O)NC(=O)[C@H](CCCNC(=N)N)NC(=O)[C@H](CCCNC(=N)N)NC(=O)[C@H](Cc2ccc(O)cc2)NC(=O)[C@@H]2CSSC[C@H](NC1=O)C(=O)N[C@@H](C)C(=O)N[C@@H](CCCNC(=N)N)C(=O)N[C@@H](CCCNC(=N)N)C(=O)N[C@@H](CC(N)=O)C(=O)NCC(=O)N[C@@H](C)C(=O)N[C@@H](CCCNC(=N)N)C(=O)N[C@@H](C(C)C)C(=O)N2 [AA139] (HELM PEPTIDE1{G.F.C.W.Y.V.C.A.R.R.N.G.A.R.V.C.Y.R.R.C.N}$PEPTIDE1,PEPTIDE1,3:R3-20:R3|PEPTIDE1,PEPTIDE1,7:R3-16:R3$$$V2.0)
[1]; Time 19.1952 h
  Nonlin fit of XY (Prism), mouse i.v. bolus: 546.556
[1]; Time 20.1802 h
  Nonlin fit of XY (Prism), mouse i.v. bolus: 523.855
[1]; Time 23.952 h
  Nonlin fit of XY (Prism), mouse i.v. bolus: 452.817
[1]; [2]
  AUC(0-inf): 14000 ng·h/mL
  half-life: 2.9 h
[1]; [3]
  level at 1.23 h: 4540 ng/mL
  level at 2 h: 8160 ng/mL
  level at 3 h: 3530 ng/mL
  level at 4 h: 1350 ng/mL
  level at 8 h: 110 ng/mL
[1]; [4]
  level at 1.23 h: 4960 ng/mL
  level at 2 h: 8010 ng/mL
  level at 3 h: 3750 ng/mL
  level at 4 h: 1140 ng/mL
  level at 8 h: 216 ng/mL
[1]; [5]
  level at 1.23 h: 4090 ng/mL
  level at 2 h: 3870 ng/mL
  level at 3 h: 1420 ng/mL
  level at 4 h: 1490 ng/mL
  level at 8 h: 178 ng/mL
[1]; i.v., mice, cynomolgus monkeys and minipigs
  Clearance relative to rate of liver blood flow: ~ 20%
[1]; i.v., mice, cynomolgus monkeys and minipigs, bi-exponential elimination
  half-life: 2 to 4 h
[1]; [6]
  AUC(0-inf): 24900 ng·h/mL
  Vd: 0.91 L/kg
  half-life: 3.2 h
[1]; male, CD1, mouse, in vivo, iv, 10 mg/kg
  Cmax: 16200 ng/mL
[1]; [7]
  level at 0.08 h: 14900 ng/mL
  level at 0.5 h: 8770 ng/mL
  level at 1 h: 7140 ng/mL
  level at 2 h: 5140 ng/mL
  level at 4 h: 1600 ng/mL
  level at 8 h: 402 ng/mL
  level at 24 h: 48 ng/mL
[1]; [8]
  level at 0.08 h: 10800 ng/mL
  level at 0.5 h: 8380 ng/mL
  level at 1 h: 5150 ng/mL
  level at 2 h: 2960 ng/mL
  level at 4 h: 1470 ng/mL
  level at 8 h: 388 ng/mL
  level at 24 h: 32 ng/mL
[1]; [9]
  level at 0.08 h: 13200 ng/mL
  level at 0.5 h: 6290 ng/mL
  level at 1 h: 3780 ng/mL
  level at 2 h: 3850 ng/mL
  level at 4 h: 1500 ng/mL
  level at 8 h: 472 ng/mL
  level at 24 h: 31 ng/mL
[1]; mouse 2h i.v. infusion, time 10 h, replicate 1
  Cross species PK, concentration (Fig 6 source data): 88
[1]; mouse 2h i.v. infusion, time 10 h, replicate 2
  Cross species PK, concentration (Fig 6 source data): 124
[1]; mouse 2h i.v. infusion, time 10 h, replicate 3
  Cross species PK, concentration (Fig 6 source data): 134
[1]; mouse 2h i.v. infusion, time 12 h, replicate 1
  Cross species PK, concentration (Fig 6 source data): 72.4
[1]; mouse 2h i.v. infusion, time 12 h, replicate 2
  Cross species PK, concentration (Fig 6 source data): 93.8
[1]; mouse 2h i.v. infusion, time 12 h, replicate 3
  Cross species PK, concentration (Fig 6 source data): 62.7
C. albicans
  BMD MIC: ≥32 µg/mL
C. albicans; 24 h
  BMD MIC: 64 µg/mL
C. neoformans
  BMD MIC: 1 µg/mL
  MIC against Cryptococcus neoformans: 1 to 4 µg/mL
